In ChEMBL document CHEMBL1124667 (1989) one finds Activity and relative binding affinity (RBA) data, which are given here for 21 compounds.

The subject of assay [1] is MCF7. The experiment in a line: Growth inhibitory activity against MCF-7 human breast tumor cell line at a concentration of 10e-6 M in vitro. Set-up: scale not given: the % may be the effect or the level left. It counts as functional.
The subject of assay [2] is MCF7. Kind of assay: Growth inhibitory activity against MCF-7 human breast tumor cell line at a concentration of 10e-7 M in vitro. It counts as functional. The arrangement: scale not given: the % may be the effect or the level left.
Assay [3] has as its system MCF7. Kind of assay: Growth inhibitory activity against MCF-7 human breast tumor cell line at a concentration of 10e-8 M in vitro. It counts as functional. The arrangement: scale not given: the % may be the effect or the level left.
Assay [4] addresses Estrogen receptor (Homo sapiens) (UniProt Q92731+P03372). The experiment in a line: Relative binding affinity against estrogen receptors in MCF-7 whole cells. Particulars: MCF7. In kind it is cell-based.

`CC/C(=C(/c1ccc(I)cc1)c1ccc(OCCN(C)C)cc1)c1ccccc1`: the Activity in the assay with MCF7 [1] was determined as 120%; with MCF7 [2], 126%; in the assay with MCF7 [3] it was 99%.

Take `CC/C(=C(/c1ccc(Br)cc1)c1ccc(OCCN(C)C)cc1)c1ccccc1`: the Activity with MCF7 [1] was found to be 174%; in the assay with MCF7 [2], 163%; with MCF7 [3], 110%.

Take `CC/C(=C(\c1ccc(OCCN(C)C)cc1)c1ccc(SC)cc1)c1ccccc1`: the Activity is given as 69% with MCF7 [1], 117% in the assay with MCF7 [2] and 102% in the assay with MCF7 [3].

In assay [4], `CC/C(=C(\c1ccc(CO)cc1)c1ccc(OCCN(C)C)cc1)c1ccccc1` registered a relative binding affinity (RBA) of 1.5. For the same compound, the Activity is on record as 150% in the assay on MCF7 [1], 145% with MCF7 [2] and 164% in the assay on MCF7 [3].

Take `CC/C(=C(/c1ccc(OCCN(C)C)cc1)c1ccc([S+](C)[O-])cc1)c1ccccc1` (centres undefined): the Activity in the assay with MCF7 [1] worked out at 238%; in the assay on MCF7 [2], 237%; in the assay on MCF7 [3], 177%.

On to `CC/C(=C(/c1ccc(OCCN(C)C)cc1)c1ccc(C2CO2)cc1)c1ccccc1` (centres undefined), for which the Activity in the assay on MCF7 [1] was 19%; in the assay on MCF7 [2] it was 42%; with MCF7 [3], 113%.

On to `CC/C(=C(\c1ccc(I)cc1)c1ccc(OCCN(CC)CC)cc1)c1ccccc1`, for which the results for the Activity in the assay with MCF7 [1], in the assay with MCF7 [2] and in the assay with MCF7 [3] were 23%, 35% and 101%, respectively.

`CC/C(=C(\c1ccc(OCCN(C)C)cc1)c1ccc(S(C)(=O)=O)cc1)c1ccccc1`: the Activity with MCF7 [1] is listed as 140%; in the assay on MCF7 [2] it was 114%; in the assay on MCF7 [3] it was 88%.

In the case of `CCC(=C(c1ccc(O)cc1)c1ccc(OCCN(C)C)cc1)c1ccccc1`, the Activity in the assay with MCF7 [1] is 15%; in the assay on MCF7 [2], 38%; with MCF7 [3], 48%.

`CC/C(=C(\c1ccc(Cl)cc1)c1ccc(OCCN(C)C)cc1)c1ccccc1`: the Activity stood at 56% with MCF7 [1], 119% in the assay with MCF7 [2] and 116% in the assay on MCF7 [3].

Turning to `CC/C(=C(/c1ccccc1)c1ccc(OCCN(C)C)cc1)c1ccccc1`, the Activity came out at 137% with MCF7 [1], 140% with MCF7 [2] and 135% in the assay with MCF7 [3].

Regarding `CC/C(=C(/c1ccc(OCCN(C)C)cc1)c1ccc(S(C)(=O)=O)cc1)c1ccccc1`, the results for the Activity in the assay on MCF7 [1], in the assay on MCF7 [2] and in the assay with MCF7 [3] were 29%, 75% and 125%, respectively.

Consider `CC/C(=C(/c1ccc(OCCN(C)C)cc1)c1cccc(I)c1)c1ccccc1`, for which the Activity in the assay with MCF7 [1] is 27%; in the assay on MCF7 [2], 68%; in the assay with MCF7 [3] it was 100%.

Consider `CC/C(=C(\c1ccc(Br)cc1)c1ccc(OCCN(C)C)cc1)c1ccccc1`, for which the Activity stood at 63% with MCF7 [1], 101% in the assay on MCF7 [2] and 130% in the assay with MCF7 [3].

Consider `CC/C(=C(/c1ccc(OCCN(C)C)cc1)c1ccc(SC)cc1)c1ccccc1`, for which the values for the Activity in the assay on MCF7 [1], in the assay on MCF7 [2] and in the assay on MCF7 [3] were 54%, 66% and 154%, respectively.

`CC/C(=C(\c1ccccc1)c1ccc(OCCN(C)C)cc1)c1ccccc1` [TAMOXIFEN]: the results for the Activity in the assay with MCF7 [1], in the assay with MCF7 [2] and in the assay on MCF7 [3] were 70%, 100% and 119%, respectively.

For `CC/C(=C(\c1ccc(OCCN(C)C)cc1)c1ccc([S+](C)[O-])cc1)c1ccccc1` (centres undefined), the Activity was found to be 67% with MCF7 [1], 135% in the assay on MCF7 [2] and 112% in the assay on MCF7 [3].

Turning to `CC/C(=C(\c1ccc(I)cc1)c1ccc(OCCN2CCCC2)cc1)c1ccccc1` [IDOXIFENE], the Activity came to 20% in the assay with MCF7 [1], 27% with MCF7 [2] and 84% in the assay with MCF7 [3].

In the case of `CC/C(=C(\c1ccc(I)cc1)c1ccc(OCCN(C)C)cc1)c1ccccc1`, the Activity is reported as 26% with MCF7 [1], 42% in the assay on MCF7 [2] and 115% in the assay with MCF7 [3].

For the compound `CC/C(=C(\c1ccc(C=O)cc1)c1ccc(OCCN(C)C)cc1)c1ccccc1`, the values for the Activity with MCF7 [1], with MCF7 [2] and in the assay with MCF7 [3] were 42%, 38% and 62%, respectively.

For the compound `CC/C(=C(\c1ccc(S)cc1)c1ccc(OCCN(C)C)cc1)c1ccccc1`, the Activity in the assay on MCF7 [1] was 147%; with MCF7 [2] it was 110%; in the assay on MCF7 [3] it was 94%.
